Data from PubChem BioAssay (NCI).
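Test compounds were applied to cells in 96-well plates for 48 hours at 5 doses. TGI: concentration producing complete growth inhibition.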

Assays:
Experiment in all cases: NCI anticancer screen, dose series, 48 h
MALME-3M melanoma = test system: MALME-3M melanoma
HOP-62 NSCLC = test system: HOP-62 NSCLC
OVCAR-8 ovarian = test system: OVCAR-8 ovarian
COLO 205 colon = test system: COLO 205 colon
NCI-H226 lung = test system: NCI-H226 lung
HT29 colon = test system: HT29 colon
TK-10 renal = test system: TK-10 renal
SF-539 CNS = test system: SF-539 CNS
SNB-75 CNS = test system: SNB-75 CNS
NCI-H23 lung = test system: NCI-H23 lung
SK-OV-3 ovarian = test system: SK-OV-3 ovarian
OVCAR-5 ovarian = test system: OVCAR-5 ovarian
UACC-257 melanoma = test system: UACC-257 melanoma
UACC-62 melanoma = test system: UACC-62 melanoma
PC-3 prostate = test system: PC-3 prostate
SK-MEL-2 melanoma = test system: SK-MEL-2 melanoma
CAKI-1 renal = test system: CAKI-1 renal
SNB-19 CNS = test system: SNB-19 CNS
DU-145 prostate = test system: DU-145 prostate

Row | Compound | TGI (MALME-3M melanoma) [µM] | TGI (HOP-62 NSCLC) [µM] | TGI (OVCAR-8 ovarian) [µM] | TGI (COLO 205 colon) [µM] | TGI (NCI-H226 lung) [µM] | TGI (HT29 colon) [µM] | TGI (TK-10 renal) [µM] | TGI (SF-539 CNS) [µM] | TGI (SNB-75 CNS) [µM] | TGI (NCI-H23 lung) [µM] | TGI (SK-OV-3 ovarian) [µM] | TGI (OVCAR-5 ovarian) [µM] | TGI (UACC-257 melanoma) [µM] | TGI (UACC-62 melanoma) [µM] | TGI (PC-3 prostate) [µM] | TGI (SK-MEL-2 melanoma) [µM] | TGI (CAKI-1 renal) [µM] | TGI (SNB-19 CNS) [µM] | TGI (DU-145 prostate) [µM]
1 | COC(=O)CCc1ccc2c(c1)CC1(Cc3ccccc3C1)C2 | > 100 | > 100 | > 100 | > 100 | > 100 | > 100 | > 100 | > 100 | > 100 | > 100 | > 100 | > 100 | > 100 | > 100 | > 100 | > 100 |  |  | 
2 | C/C=C1\CNC1C(=O)O (stereo not drawn) | > 100 | > 100 | > 100 | > 100 |  | > 100 | > 100 | > 100 |  | > 100 | > 100 | > 100 | > 100 | > 100 | > 100 | > 100 | > 100 | > 100 | 
3 | C[C@]12CC[C@H]3[C@@H](CCC4=CC(=O)CC[C@@]43C)[C@@H]1CC[C@@H]2C(=O)Nc1ccc([N+](=O)[O-])c(C(F)(F)F)c1 | 31.2 | 67.1 | 90.9 | 36.7 | 39 | 32.1 | 35.3 | 33.5 |  | > 10 | 25.4 | > 10 | > 10 | 31.9 | 40 | 33.2 | 35.9 | 36.8 | 42.3
4 | C[C@@H](CO)C1=CC(C#C[Si](C)(C)C)N(C(=O)Oc2ccccc2)c2ccccc21 (stereo partly drawn) |  | 30 | 35 | > 100 | 44 | 35.2 | 79.5 | 41.6 | 36.1 | 23.1 | 56.3 | 57.1 | 38.3 | 21.9 | 64.1 | 35.3 | 56.8 | 82 | 48.1
5 | CC(=O)C1=C(C)N2C(=NC3=C(CCc4ccccc43)C2c2cccc(Br)c2)S1 (stereo not drawn) |  | > 100 | > 100 | > 100 | > 100 | > 100 |  | > 100 | > 100 | > 100 | > 100 | > 100 | > 100 | > 100 | > 100 | > 100 |  | > 100 | > 100
6 | NCCCCN(CCCN)Cc1ccc2ccccc2c1 | > 100 |  | > 100 | > 100 | > 100 | > 100 | > 100 | > 100 | 22.8 | > 100 | > 100 | > 100 | > 100 | > 100 |  |  | 33 | 55 | > 100
7 | CO/N=C(\C(=O)Nc1cncs1)c1csc(N)n1 | > 10 | > 10 | > 10 | > 10 |  | > 10 | > 10 | > 10 | > 10 | > 10 | > 10 | > 10 | > 10 | > 10 | > 10 |  | > 10 | > 10 | > 10
8 | COc1ccc2nc3cc([N+](=O)[O-])ccc3c(Nc3ccc(S(=O)(=O)N=C(N)N)cc3)c2c1 | 28.5 | > 100 |  | 70.6 | > 100 | > 100 | > 100 | > 100 |  | > 100 | > 100 | > 100 | > 100 | 46.9 | > 100 | 44.4 | > 100 | > 100 | > 100
9 | COC(=O)c1cc(C)ccc1C1CN=NC12Cc1cccc(C)c1C2=O (stereo not drawn) | 67.5 | > 100 | > 100 |  | > 100 | > 100 | > 100 | > 100 | > 100 | > 100 |  | 96.4 | > 100 |  |  |  | > 100 | > 100 | > 100
10 | C/C=C1/CN2CCC34c5ccccc5N(C)C23C2CC1C4(C(=O)OC)C(O)O2 (stereo not drawn) |  | > 100 | > 100 | > 100 | > 100 | > 100 | > 100 | > 100 | > 100 | > 100 | > 100 | > 100 | > 100 | > 100 | > 100 | > 100 | > 100 | > 100 | > 100
11 | Cc1sc(Nc2ccccc2[N+](=O)[O-])c(C#N)c1C | > 100 | 76.2 | > 100 | > 100 | > 100 |  |  | 68.3 | 39.9 | 44.8 | > 100 | > 100 | > 100 | > 100 | > 100 |  | > 100 | 61.9 | > 100
12 | CN(C)C1(N(C)C)Oc2c(c(=O)n(C)c(=O)n2C)C(c2ccccc2Br)C1(F)F (stereo not drawn) |  | > 100 |  | > 100 | > 100 |  | > 100 | > 100 | > 100 | > 100 | > 100 | > 100 | > 100 | > 100 | > 100 | > 100 | > 100 | > 100 | > 100
13 | Cc1cc(O)c(C=NC(=S)c2ccccc2)c(=O)o1 |  | > 100 | > 100 | > 100 | > 100 | > 100 | > 100 | > 100 | > 100 | > 100 | > 100 | > 100 | > 100 | > 100 | > 100 | > 100 | > 100 | > 100 | > 100
14 | N#C/C(C(=S)Nc1ccccc1)=C(/N)N1CCCC1 | > 100 | > 100 | > 100 | > 100 | > 100 | > 100 | > 100 | > 100 |  | > 100 |  | > 100 | > 100 | > 100 | > 100 | > 100 | 92.5 | > 100 | > 100
